As a reminder, the solubility is the concentration that dissolves in the medium under given conditions. Low readings indicate a poorly soluble substance, high ones a readily soluble substance.

≈ marks a conversion by molar mass, not a printed value.

The nature of data set [1]: Aqueous stability of the compound assessed as time duration showing >95% compound stability at pH 7 and room temperature by UV-HPLC. It is filed as physicochemical. The note with it: buffer.
Data set [2] concerns Fasciola hepatica. In words: Antiparasitic activity against 10 week old Fasciola hepatica infected in sheep assessed as reduction in worm burden at 15 mg/kg, po. The class given is functional.
Data set [3] has as its system Fasciola hepatica. Briefly: Antiparasitic activity against Fasciola hepatica assessed as mortality at 10 mg/L after 48 hrs relative to untreated control. The class given is functional.
In data set [4] the test system is Fasciola hepatica. Briefly: Antiparasitic activity against Fasciola hepatica infected in sheep assessed as reduction of eggs at 4 mg/kg, intramuscular. The class given is functional.
Data set [5] relates to Fasciola hepatica. In words: Antiparasitic activity against Fasciola hepatica assessed as mortality at 50 mg/L after 24 hrs relative to untreated control. The class given is functional.
The subject of data set [6] is Fasciola hepatica. Briefly: Antiparasitic activity against Fasciola hepatica infected in sheep assessed as fluke reduction at 4 mg/kg, sc. It is filed as functional. The note with it: route subcutaneous.
In data set [7] the test system is Fasciola hepatica. In words: Antiparasitic activity against Fasciola hepatica assessed as mortality at 50 mg/L after 72 hrs relative to untreated control. The class given is functional.
The subject of data set [8] is Fasciola hepatica. In words: Antiparasitic activity against Fasciola hepatica assessed as mortality at 10 mg/L after 24 hrs relative to untreated control. It is filed as functional.
In data set [9] the test system is Fasciola hepatica. In words: Antiparasitic activity against Fasciola hepatica infected in sheep assessed as fluke reduction at 4 mg/kg, intramuscular. The class given is functional.
For data set [10], the system named is Fasciola hepatica. Briefly: Antiparasitic activity against Fasciola hepatica assessed as mortality at 50 mg/L after 48 hrs relative to untreated control. It is filed as functional.
Data set [11] deals with Fasciola hepatica. Briefly: Antiparasitic activity against Fasciola hepatica infected in sheep assessed as fluke reduction at 12 mg/kg, po. It is filed as functional.
Data set [12] concerns Fasciola hepatica. In words: Antiparasitic activity against Fasciola hepatica assessed as mortality at 10 mg/L after 72 hrs relative to untreated control. The class given is functional.
Data set [13] concerns Fasciola hepatica. In words: Antiparasitic activity against Fasciola hepatica infected in sheep assessed as reduction of eggs at 12 mg/kg, po. It is filed as functional.
Data set [14] relates to Fasciola hepatica. In words: Antiparasitic activity against Fasciola hepatica infected in sheep assessed as reduction of eggs at 4 mg/kg, sc. As to conditions: route subcutaneous. It is filed as functional.
Data set [15] can be described thus: Aqueous solubility of the compound at pH 7 and 25 degC. It is filed as physicochemical.

In the case of `CSc1nc2cc(Oc3cccc4ccccc34)c(Cl)cc2[nH]1`, the Stability in data set [1] is > 26 h. For the same compound, in [2], the Efficacy is given as 86.9%.

As to `CSc1nc2cc(Oc3cccc4ccccc34)c(Cl)cc2n1COP(=O)([O-])[O-].[Na+].[Na+]`, the Efficacy stood at 95.8% in data set [3]; 44.9% in data set [4]; 100% in data set [5]; 61.4% in [6]; 100% in data set [7]; 95.8% in data set [8]. Further, the Efficacy in data set [9] was determined as 87.8%; in data set [10] it was 100%; in data set [11] it was 83.3%; in [12], 100%; in [13], 95.1%; in [14], 65.8%. Also, the Stability in [1] was > 26 h.

For the compound `CSc1nc2cc(Cl)c(Oc3cccc(Cl)c3Cl)cc2[nH]1` [TRICLABENDAZOLE], the Efficacy in data set [3], in data set [5], in data set [7], in data set [8], in [10] and in [12] was 100% in each case. In addition, the Stability in data set [1] is > 24 h. In data set [15], this compound came in with a solubility of 0.2 µg/mL (≈ 0.556 µM).
